In US20230210819A1, “USE OF BENZISOSELAZOLE DERIVATIVE FOR ANTI-CORONAVIRUS AND CONTROL OF INTERSTITIAL LUNG DISEASE (ILD) RELATED TO CORONAVIRUS” (SHANGHAI YUANXI MEDICINE CORP., priority 2020, published 2023):

How the values were obtained:
Type in all cases: in vivo, C57 mice
[1] = Body weight, bleomycin-induced mice, 7-d modeling; conditions: for Body weight decreased by: day 1 to day 28
Method: (§1) Animals of 7-d modeling were randomly divided into 7 groups according to the table below, 6 animals per control group and 12 animals per test group.
(§2) Drug administration began 24 h or 7 d after modeling. […] The day of the first administration was counted as D1, the next day as D2, and so forth. The normal groups and Model groups were given 200 µL of normal saline daily by gavage administration.
All the animals were observed once daily during the experiment for death or dying, feces, ingestion, mental state and behavior and activity. Abnormalities were recorded in time. All the animals were weighed once before grouping and once before each dose.
(§3) In this experiment, 105 C57 mice were randomly selected and subjected to organ drip administration of a single dose of bleomycin at 2.5 mg/kg for 24 h or 7 d for induction. After 7 days of induction, 3 model mice were randomly selected and dissected to determine whether the modeling was successful. After modeling, the survival of the mice was recorded. The living states of the mice were observed and their body weight was measured at a fixed time.
(§4) A normal control group comprised 6 mice.

[2] = system: bleomycin-induced mouse lung disease model; test: Lung and spleen coefficients, 7-d modeling
Method: as §1, §2
Method: after being euthanized, the animals were dissected, and the heart, liver, spleen, lung and kidney were weighed.
as §3, §4

[3] = system: bleomycin-induced mouse lung disease model; test: Lung HE pathological analysis (Ashcroft score), 24-h modeling; conditions: for HE score (pulmonary fibrosis, Ashcroft): 15 fields of view
Method: Animals of 24-h modeling were randomly divided into 5 groups according to the table below, 3 animals per control group and 5 animals per test group.
as §2
(§5) 1. […] Specifically, a mold was prepared first, and then the tissue was laid flat at the bottom of the mold; after the section face was arranged facedown, the embedding box cover was put on the mold; molten wax was poured into the mold until it overflowed the mold, and then the mold was gently lifted up and laid flat in a freezing platform; after being rapidly cooled and frozen for about 10 min, the mold was took out. • 6) Sectioning method
(§6) 2. HE staining • 1) A flat section was selected for HE staining. • 2) The section was dewaxed in xylene I for 20 min. • 3) The section was dewaxed in xylene II for 20 min. • 4) The section was soaked in absolute ethanol for 10 min. • 5) Stepwise rehydrating, in absolute ethanol for 5 min, in 90% ethanol for 5 min, in 80% ethanol for 5 min, and in […] for 5 min; and a water wash. • 6) Staining with hematoxylin for 3-5 min. A water wash. • 7) Differentiating with 1% HCl-[…] for 5-10 s. A water wash, and bluing. • 8) Staining with eosin for 30-60 s. A water wash. • 9) Washing with 80% ethanol for 3-5 s, with 95% ethanol for 3-5 s, and with absolute ethanol for 3-5 s. • 10) Coverslipping with neutral resin, observing under a microscope, and photographing.
(§7) HE sectioning: 3 sections were consecutively made; flat sections of complete tissue were selected for HE staining; each of the sections was photographed in 3 randomly selected fields of view at 200x magnification. The obtained images were scored.
(§8) The general standard Ashcroft scoring method for pulmonary fibrosis tissues was adopted in HE scoring. The HE pathological analysis is an outcome evaluation for irreversible pulmonary fibrosis that develops in interstitial lung disease models.
For 5 animals from each of the 24-h modeling groups, a total of 15 HE fields of view were scored. […] According to the scoring criteria, a score below 3 points indicates there has been no significant structural change accompanying in the lung tissues.

[4] = system: bleomycin-induced mouse lung disease model; test: Lung HE pathological analysis (Ashcroft score), 7-d modeling; conditions: for HE score (pulmonary fibrosis, Ashcroft): 18 fields of view
Method: as §1, §2, §5, §6, §7, §8
For 6 animals from each of the 7-d modeling groups, a total of 18 HE fields of view were scored.

[5] = 24-h modeling, BS 90 mg/kg gavage daily
[6] = 7-d modeling, BSH: BS 180 mg/kg gavage daily
[7] = 7-d modeling, BSL: BS 36 mg/kg gavage daily
[8] = 7-d modeling, BSM: BS 90 mg/kg gavage daily
[9] = Dex 1-1.5 mg/kg i.p. every two days
[10] = 24-h modeling, Dex 1-1.5 mg/kg i.p. every two days
[11] = 7-d modeling, Dex 1-1.5 mg/kg i.p. every two days

O=c1c2ccccc2[se]n1CCCCn1[se]c2ccccc2c1=O [BS, 1,4-[bis(1,2-benzisoselenazol-3(2H)-one)]butane]
Body weight ([1]; BSH: BS 180 mg/kg gavage daily, D1): 19.88 ± 0.47 g
Body weight ([1]; BSH: BS 180 mg/kg gavage daily, D7): 19.45 ± 0.62 g
Body weight ([1]; BSH: BS 180 mg/kg gavage daily, D14): 19.26 ± 0.44 g
Body weight ([1]; BSH: BS 180 mg/kg gavage daily, D21): 19.13 ± 0.54 g
Body weight ([1]; BSH: BS 180 mg/kg gavage daily, D28): 19.19 ± 0.71 g
Body weight decreased by ([1]; BSH: BS 180 mg/kg gavage daily): 3.62%
Body weight ([1]; BSL: BS 36 mg/kg gavage daily, D1): 17.80 ± 0.72 g
Body weight ([1]; BSL: BS 36 mg/kg gavage daily, D7): 17.49 ± 0.84 g
Body weight ([1]; BSL: BS 36 mg/kg gavage daily, D14): 17.37 ± 0.80 g
Body weight ([1]; BSL: BS 36 mg/kg gavage daily, D21): 17.23 ± 0.76 g
Body weight ([1]; BSL: BS 36 mg/kg gavage daily, D28): 17.23 ± 0.82 g
Body weight decreased by ([1]; BSL: BS 36 mg/kg gavage daily): 3.39%
Body weight ([1]; BSM: BS 90 mg/kg gavage daily, D1): 18.20 ± 0.87 g
Body weight ([1]; BSM: BS 90 mg/kg gavage daily, D7): 17.89 ± 0.92 g
Body weight ([1]; BSM: BS 90 mg/kg gavage daily, D14): 17.63 ± 0.79 g
Body weight ([1]; BSM: BS 90 mg/kg gavage daily, D21): 17.46 ± 0.73 g
Body weight ([1]; BSM: BS 90 mg/kg gavage daily, D28): 17.41 ± 0.72 g
Body weight decreased by ([1]; BSM: BS 90 mg/kg gavage daily): 4.53%
Effect on lung coefficient (in words) ([2]; BS 90 mg/kg or 180 mg/kg, effect better than that of Dex): significantly reduce increases in the lung coefficient
Effect on spleen coefficient (in words) ([2]; BS 180 mg/kg, effect better than that of Dex): significantly decrease the spleen coefficient
Lung coefficient ([2]; BSH: BS 180 mg/kg gavage daily): 0.88±0.05%
Spleen coefficient ([2]; BSH: BS 180 mg/kg gavage daily): 0.39±0.02%
Lung coefficient ([2]; BSL: BS 36 mg/kg gavage daily): 0.97±0.07%
Spleen coefficient ([2]; BSL: BS 36 mg/kg gavage daily): 0.40±0.07%
Lung coefficient ([2]; BSM: BS 90 mg/kg gavage daily): 0.90±0.09%
Spleen coefficient ([2]; BSM: BS 90 mg/kg gavage daily): 0.40±0.05%
Effect on lung tissue structure, HE (in words) ([3]; 24-h model, early stage of pulmonary fibrosis, BS 90 mg/kg): significantly reduce structural changes in lung tissues
HE score and benefit rate, >4 points (fields/total) [3, 5]: 3/15
HE score and benefit rate, >4 points (percent of fields) [3, 5]: 20.0%
HE score and benefit rate, >5, points (fields/total) [3, 5]: 0/15 0/15
HE score and benefit rate, >5, points (percent of fields) [3, 5]: 0% 0%
HE score and benefit rate, ≥3 points (fields/total) [3, 5]: 12/15
HE score and benefit rate, ≥3 points (percent of fields) [3, 5]: 80.0%
HE score (pulmonary fibrosis, Ashcroft) [3, 5]: 3.00 ± 0.65
Clear lung tissue damage (HE score up to 5 points), in words ([3]; 24-h modeling, after 35 days of administration, Dex 1-1.5 mg/kg, BS 90 mg/kg): no clear lung tissue damage occurred
Effect on lung tissue structure, HE (in words) ([4]; 7-d model, formation stage, BSL (36 mg/kg), BSM (90 mg/kg) and BSH (180 mg/kg)): significantly reduce structural changes in lung tissues
Effect against ECM deposition (in words) ([4]; 7-d model, BSH, 180 mg/kg): significant synergetic effect against ECM deposition
Clear lung tissue damage or pathological tissue change, in words ([4]; 7-d modeling, BSH: BS 180 mg/kg): did not show clear lung tissue damage or pathological tissue change
HE score and benefit rate, ≥4 points (fields/total); pathological tissue change [4, 6]: 0/18
HE score and benefit rate, ≥4 points (percent of fields); probability of pathological tissue change [4, 6]: 0%
HE score and benefit rate, ≥5 points (fields/total); clear lung tissue damage [4, 6]: 0/18
HE score and benefit rate, ≥5 points (percent of fields); probability of clear lung tissue damage [4, 6]: 0%
HE score and benefit rate, ≥6 points (fields/total) [4, 6]: 0/18
HE score and benefit rate, ≥6 points (percent of fields) [4, 6]: 0%
Lung HE histology description [4, 6]: substantially complete lung tissue structures
HE score (pulmonary fibrosis, Ashcroft) [4, 6]: 1.48 ± 0.78
HE score and benefit rate, ≥4 points (fields/total); pathological tissue change [4, 7]: 15/18
HE score and benefit rate, ≥4 points (percent of fields); probability of pathological tissue change [4, 7]: 83.3%
HE score and benefit rate, ≥5 points (fields/total); clear lung tissue damage [4, 7]: 6/18
HE score and benefit rate, ≥5 points (percent of fields); probability of clear lung tissue damage [4, 7]: 33.3%
HE score and benefit rate, ≥6 points (fields/total) [4, 7]: 1/18
HE score and benefit rate, ≥6 points (percent of fields) [4, 7]: 5.6%
Lung HE histology description [4, 7]: relatively better lung structures than the Model group
HE score (pulmonary fibrosis, Ashcroft) [4, 7]: 4.28 ± 0.83
HE score and benefit rate, ≥4 points (fields/total); pathological tissue change [4, 8]: 5/18
HE score and benefit rate, ≥4 points (percent of fields); probability of pathological tissue change [4, 8]: 27.8%
HE score and benefit rate, ≥5 points (fields/total); clear lung tissue damage [4, 8]: 1/18
HE score and benefit rate, ≥5 points (percent of fields); probability of clear lung tissue damage [4, 8]: 5.6%
HE score and benefit rate, ≥6 points (fields/total) [4, 8]: 0/18
HE score and benefit rate, ≥6 points (percent of fields) [4, 8]: 0%
Lung HE histology description [4, 8]: much better lung structures than the Model group
HE score (pulmonary fibrosis, Ashcroft) [4, 8]: 3.00 ± 0.84

C[C@@H]1C[C@H]2[C@@H]3CCC4=CC(=O)C=C[C@]4(C)[C@@]3(F)[C@@H](O)C[C@]2(C)[C@@]1(O)C(=O)CO [Dex, dexamethasone, reference compound]
Body weight ([1]; Dex 1-1.5 mg/kg i.p. every two days, D1): 17.79 ± 0.89 g
Body weight ([1]; Dex 1-1.5 mg/kg i.p. every two days, D7): 17.61 ± 1.02 g
Body weight ([1]; Dex 1-1.5 mg/kg i.p. every two days, D14): 17.45 ± 0.96 g
Body weight ([1]; Dex 1-1.5 mg/kg i.p. every two days, D21): 17.43 ± 0.92 g
Body weight ([1]; Dex 1-1.5 mg/kg i.p. every two days, D28): 17.38 ± 0.85 g
Body weight decreased by [1, 9]: 2.42%
Lung coefficient [2, 9]: 0.96±0.08%
Spleen coefficient [2, 9]: 0.43±0.04%
HE score and benefit rate, >4 points (percent of fields) [3, 10]: 0%
HE score and benefit rate, >5, points (percent of fields) [3, 10]: 0% 0%
HE score and benefit rate, ≥3 points (percent of fields) [3, 10]: 53.3%
HE score (pulmonary fibrosis, Ashcroft) [3, 10]: 2.53 ± 0.52
HE score and benefit rate, ≥4 points (fields/total); pathological tissue change [4, 11]: 7/18
HE score and benefit rate, ≥4 points (percent of fields); probability of pathological tissue change [4, 11]: 38.9%
HE score and benefit rate, ≥6 points (fields/total) [4, 11]: 0/18
HE score and benefit rate, ≥6 points (percent of fields) [4, 11]: 0%
HE score (pulmonary fibrosis, Ashcroft) [4, 11]: 3.28 ± 0.83
